# Source: ChEMBL document CHEMBL6153055, “Design, Synthesis, and Pharmacological Evaluation of Nonsteroidal Tricyclic Ligands as Modulators of GABAA Receptors” (J Med Chem, 2025)
# Calls of active or inactive are those of the source. The rule behind the calls is not given here.
# What was measured:
# [1] = molecular target: T1, Gamma-aminobutyric acid receptor subunit alpha-1/beta-3/gamma-2 (Mus musculus, UniProt P22723+P62812+P63080); assay: Negative allosteric modulation of recombinant mouse alpha1beta3gamma2 GABAA receptor expressed in GFP tagged HEK293 cells at peak current by whole-cell voltage clamp electrophysiological analysis; assay type: cell-based
# [2] = molecular target: T1, Gamma-aminobutyric acid receptor subunit alpha-1/beta-3/gamma-2; assay: Negative allosteric modulation of recombinant mouse alpha1beta3gamma2 GABAA receptor expressed in GFP tagged HEK293 cells at steady state current by whole-cell voltage clamp electrophysiological analysis; assay type: cell-based
# [3] = molecular target: T2, Gamma-aminobutyric acid receptor subunit alpha-1/beta-3/gamma-2 (Mus musculus) (UniProt P22723+P62812+P63080); assay: Negative allosteric modulation of recombinant mouse alpha1beta3gamma2 GABAA receptor expressed in GFP tagged HEK293 cells at 100 uM by whole-cell voltage clamp electrophysiological analysis; assay type: cell-based; conditions: filed as negative allosteric modulator
# [4] = Solubility of the compound at 100 uM; assay type: physicochemical
# [5] = molecular target: T2, Gamma-aminobutyric acid receptor subunit alpha-1/beta-3/gamma-2 (Mus musculus); assay: Positive allosteric modulation of recombinant mouse alpha1beta3gamma2 GABAA receptor expressed in GFP tagged HEK293 cells assessed as maximum GABA current at 100 uM by whole-cell voltage clamp electrophysiological analysis; assay type: cell-based; conditions: filed as positive allosteric modulator
# [6] = molecular target: T2, Gamma-aminobutyric acid receptor subunit alpha-1/beta-3/gamma-2 (Mus musculus); assay: Negative allosteric modulation of recombinant mouse alpha1beta3gamma2 GABAA receptor expressed in GFP tagged HEK293 cells at 100 uM by whole-cell voltage clamp electrophysiological analysis relative control; assay type: cell-based; conditions: filed as negative allosteric modulator
# [7] = molecular target: T3, GABA-A receptor; anion channel (Rattus norvegicus) (UniProt O09028+P15431+P18506+P18508+P19969+P20236+P23574+P23576+P28471+P28473+P30191+P62813+P63079+P63138+Q91ZM7+Q9ES14); assay: Positive allosteric modulation of GABAA receptor in Sprague-Dawley rat Hippocampal neuron assessed as decrease in spontaneous IPSC frequency at 10 uM by whole-cell voltage-clamp electrophysiological analysis; assay type: cell-based; conditions: filed as positive allosteric modulator
# [8] = molecular target: T3, GABA-A receptor; anion channel (Rattus norvegicus); assay: Positive allosteric modulation of GABAA receptor in Sprague-Dawley rat Hippocampal neuron assessed as prolongation of spontaneous IPSC decay time at 10 uM by whole-cell voltage-clamp electrophysiological analysis; assay type: cell-based; conditions: filed as positive allosteric modulator
# [9] = molecular target: T3, GABA-A receptor; anion channel (Rattus norvegicus); assay: Positive allosteric modulation of GABAA receptor in Sprague-Dawley rat Hippocampal neuron assessed as reduction in spontaneous IPSC amplitude at 10 uM by whole-cell voltage-clamp electrophysiological analysis; assay type: cell-based; conditions: filed as positive allosteric modulator
# HEK293 [10] = assay: Positive allosteric modulation of recombinant mouse alpha1 Q241L mutant/beta3/gamma2 GABAA receptor expressed in GFP tagged HEK293 cells by whole-cell voltage clamp electrophysiological analysis; assay type: cell-based
# [11] = molecular target: T3, GABA-A receptor; anion channel (Rattus norvegicus); assay: Positive allosteric modulation of GABAA receptor in Sprague-Dawley rat Hippocampal neuron assessed as potentiation of tonic holding current at 30 uM by whole-cell voltage-clamp electrophysiological analysis; assay type: cell-based; conditions: filed as positive allosteric modulator
# HEK293 [12] = assay: Negative allosteric modulation of recombinant mouse alpha1 Q241L mutant/beta3/gamma2 GABAA receptor expressed in GFP tagged HEK293 cells assessed as inhibition of steady-state level at 100 uM by whole-cell voltage clamp electrophysiological analysis; assay type: cell-based
# HEK293 [13] = assay: Positive allosteric modulation of recombinant mouse alpha1 Q241L mutant/beta3/gamma2 GABAA receptor expressed in GFP tagged HEK293 cells at 100 uM by whole-cell voltage clamp electrophysiological analysis; assay type: cell-based
# [14] = molecular target: T2, Gamma-aminobutyric acid receptor subunit alpha-1/beta-3/gamma-2 (Mus musculus); assay: Positive allosteric modulation of recombinant wild type mouse alpha1beta3gamma2 GABAA receptor expressed in GFP tagged HEK293 cells at 100 uM by whole-cell voltage clamp electrophysiological analysis; assay type: cell-based
# HEK293 [15] = assay: Negative allosteric modulation of recombinant mouse alpha1 Q241L mutant/beta3/gamma2 GABAA receptor expressed in GFP tagged HEK293 cells assessed as inhibition of peak current at 100 uM by whole-cell voltage clamp electrophysiological analysis; assay type: cell-based
# [16] = molecular target: T2, Gamma-aminobutyric acid receptor subunit alpha-1/beta-3/gamma-2 (Mus musculus); assay: Positive allosteric modulation of recombinant mouse alpha1beta3gamma2 GABAA receptor expressed in GFP tagged HEK293 cells assessed as maximum GABA current by measuring maximum activation at 100 uM by whole-cell voltage clamp electrophysiological analysis relative to control; assay type: cell-based; conditions: filed as positive allosteric modulator
# T1 sequence (P22723 whole entry): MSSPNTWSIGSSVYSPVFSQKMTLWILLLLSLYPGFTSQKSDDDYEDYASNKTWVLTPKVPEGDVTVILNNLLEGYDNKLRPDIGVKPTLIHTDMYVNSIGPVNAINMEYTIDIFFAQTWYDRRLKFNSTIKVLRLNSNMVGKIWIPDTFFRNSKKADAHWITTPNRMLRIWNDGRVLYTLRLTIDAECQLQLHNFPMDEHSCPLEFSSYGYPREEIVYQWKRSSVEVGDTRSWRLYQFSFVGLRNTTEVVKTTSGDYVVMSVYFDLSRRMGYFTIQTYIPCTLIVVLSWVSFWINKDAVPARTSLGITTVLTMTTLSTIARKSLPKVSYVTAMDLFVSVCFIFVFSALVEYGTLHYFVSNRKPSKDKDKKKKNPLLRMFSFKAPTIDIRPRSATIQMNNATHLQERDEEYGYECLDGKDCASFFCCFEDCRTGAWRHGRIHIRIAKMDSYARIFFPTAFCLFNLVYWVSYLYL
# T1 sequence (P62812 whole entry): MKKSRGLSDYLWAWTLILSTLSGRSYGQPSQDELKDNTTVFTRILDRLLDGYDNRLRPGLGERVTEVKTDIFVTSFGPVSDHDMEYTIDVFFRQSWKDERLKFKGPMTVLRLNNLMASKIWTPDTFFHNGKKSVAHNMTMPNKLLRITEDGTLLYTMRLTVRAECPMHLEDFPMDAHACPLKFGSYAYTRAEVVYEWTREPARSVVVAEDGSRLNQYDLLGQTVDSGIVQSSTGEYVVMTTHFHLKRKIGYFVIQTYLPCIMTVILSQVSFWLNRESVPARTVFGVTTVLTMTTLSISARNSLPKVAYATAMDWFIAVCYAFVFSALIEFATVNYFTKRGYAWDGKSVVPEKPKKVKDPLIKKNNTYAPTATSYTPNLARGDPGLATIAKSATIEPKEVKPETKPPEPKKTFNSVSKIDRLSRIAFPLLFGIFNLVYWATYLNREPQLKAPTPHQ
# T1 sequence (P63080 whole entry): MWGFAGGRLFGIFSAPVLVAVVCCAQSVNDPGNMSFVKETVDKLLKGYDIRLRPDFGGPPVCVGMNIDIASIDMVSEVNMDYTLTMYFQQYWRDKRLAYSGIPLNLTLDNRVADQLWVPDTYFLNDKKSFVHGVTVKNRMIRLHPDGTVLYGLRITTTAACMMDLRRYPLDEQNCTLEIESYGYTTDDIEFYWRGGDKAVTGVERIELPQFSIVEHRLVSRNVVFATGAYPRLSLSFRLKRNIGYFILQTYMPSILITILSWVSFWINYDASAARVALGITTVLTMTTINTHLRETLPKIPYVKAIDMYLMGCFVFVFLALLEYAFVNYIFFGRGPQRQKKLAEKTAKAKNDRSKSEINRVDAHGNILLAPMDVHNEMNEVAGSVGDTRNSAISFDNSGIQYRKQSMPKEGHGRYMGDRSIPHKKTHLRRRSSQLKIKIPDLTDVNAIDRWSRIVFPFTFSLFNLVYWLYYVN
Compound,IC50 [1],IC50 [2],Activity [3],solubility [4],Activity [5],Activity [6],further results
CC(=O)[C@H]1CC[C@H]2[C@@H]3CC=C4C[C@@H](OS(=O)(=O)O)CC[C@]4(C)[C@H]3CC[C@]12C,292 µM,3.2 µM,–,–,–,–,–
O[C@H]1CC[C@@H](c2ccc3c(c2)CCC3)CC1,55 µM,18 µM,Active,soluble,Active,–,–
O[C@H]1CC[C@H](c2ccc3c(c2)CCC3)CC1,59 µM,14 µM,Active,soluble,Active,–,–
C[C@]12CC[C@H](OS(=O)(=O)O)CC1=CCc1cc(Br)ccc12,10 µM,10 µM,Active,soluble,Active,100%,–
O=S(=O)(O)O[C@H]1CC[C@@H](c2ccc3c(c2)CCC3)CC1,190 µM,53 µM,Active,soluble,Active,–,–
O=S(=O)(O)O[C@H]1CC[C@H](c2ccc3c(c2)CCC3)CC1,148 µM,73 µM,Active,soluble,–,–,–
CC(=O)c1cccc(C2=CC[C@@]3(C)[C@H](CC[C@@H]3O)C2)c1,–,–,–,–,–,–,Activity [7]: Active; Activity [8]: Active; Activity [9]: Active; Activity (HEK293 [10]): inactive; Activity [11]: Active
CC(=O)c1cccc(C2=C[C@H]3CC[C@H](O)[C@@]3(C)CC2)c1,–,–,–,–,–,–,Activity (HEK293 [10]): inactive

# The next lines start with results.
IC50 [1],IC50 [2],Activity [3],solubility [4],Activity [5],Activity [6],Compound,further results
114 µM,23 µM,Active,soluble,–,–,C[C@@]12CC/C(=C/CO)C[C@H]1CCc1ccccc12,–
128 µM,54 µM,Active,soluble,–,–,C[C@]12CC[C@H](c3ccccc3)C[C@H]1CC[C@@H]2OS(=O)(=O)O (mixture of isomers),–
15 µM,12 µM,Active,soluble,–,100%,C[C@@]12CCC(CCOS(=O)(=O)O)C[C@H]1CCc1ccccc12 (mixture of isomers),Activity (HEK293 [12]): inactive; Activity (HEK293 [13]): inactive; Activity [14]: inactive; Activity (HEK293 [15]): inactive
37 µM,20 µM,Active,soluble,Active,100%,C[C@]12CC[C@H](c3ccccc3)C[C@H]1CC[C@@H]2O (mixture of isomers),Emax [16]: 43%
29 µM,14 µM,Active,soluble,–,100%,C[C@@]12CCC(CCO)C[C@H]1CCc1ccccc12 (mixture of isomers),Activity (HEK293 [12]): inactive; Activity (HEK293 [13]): inactive; Activity [14]: inactive; Activity (HEK293 [15]; filed as negative allosteric modulator): Active
76 µM,42 µM,Active,soluble,Active,–,C[C@]12CC[C@@H](c3ccccc3)C[C@H]1CC[C@@H]2OS(=O)(=O)O (mixture of isomers),–
27 µM,21 µM,Active,soluble,Active,100%,C[C@]12CC[C@@H](c3ccccc3)C[C@H]1CC[C@@H]2O (relative stereo),–
